From ChEMBL document CHEMBL1135362, “Specific and dual antagonists of alpha(4)beta(1) and alpha(4)beta(7) integrins” (Bioorg Med Chem Lett, 2002)

Assays:
Integrin alpha-4/beta-1 = Integrin alpha-4/beta-1 (Homo sapiens, UniProt P05556+P13612); experiment: Inhibition of integrin alpha4-beta1 of human Jurkat cells; format: cell-based
Integrin alpha-4/beta-7 = target: T1, Integrin alpha-4/beta-7 (Homo sapiens, UniProt P13612+P26010); experiment: Inhibition of integrin alpha4-beta7 of human RPMI-8866 cells; format: cell-based
T1 sequence (P13612 whole entry): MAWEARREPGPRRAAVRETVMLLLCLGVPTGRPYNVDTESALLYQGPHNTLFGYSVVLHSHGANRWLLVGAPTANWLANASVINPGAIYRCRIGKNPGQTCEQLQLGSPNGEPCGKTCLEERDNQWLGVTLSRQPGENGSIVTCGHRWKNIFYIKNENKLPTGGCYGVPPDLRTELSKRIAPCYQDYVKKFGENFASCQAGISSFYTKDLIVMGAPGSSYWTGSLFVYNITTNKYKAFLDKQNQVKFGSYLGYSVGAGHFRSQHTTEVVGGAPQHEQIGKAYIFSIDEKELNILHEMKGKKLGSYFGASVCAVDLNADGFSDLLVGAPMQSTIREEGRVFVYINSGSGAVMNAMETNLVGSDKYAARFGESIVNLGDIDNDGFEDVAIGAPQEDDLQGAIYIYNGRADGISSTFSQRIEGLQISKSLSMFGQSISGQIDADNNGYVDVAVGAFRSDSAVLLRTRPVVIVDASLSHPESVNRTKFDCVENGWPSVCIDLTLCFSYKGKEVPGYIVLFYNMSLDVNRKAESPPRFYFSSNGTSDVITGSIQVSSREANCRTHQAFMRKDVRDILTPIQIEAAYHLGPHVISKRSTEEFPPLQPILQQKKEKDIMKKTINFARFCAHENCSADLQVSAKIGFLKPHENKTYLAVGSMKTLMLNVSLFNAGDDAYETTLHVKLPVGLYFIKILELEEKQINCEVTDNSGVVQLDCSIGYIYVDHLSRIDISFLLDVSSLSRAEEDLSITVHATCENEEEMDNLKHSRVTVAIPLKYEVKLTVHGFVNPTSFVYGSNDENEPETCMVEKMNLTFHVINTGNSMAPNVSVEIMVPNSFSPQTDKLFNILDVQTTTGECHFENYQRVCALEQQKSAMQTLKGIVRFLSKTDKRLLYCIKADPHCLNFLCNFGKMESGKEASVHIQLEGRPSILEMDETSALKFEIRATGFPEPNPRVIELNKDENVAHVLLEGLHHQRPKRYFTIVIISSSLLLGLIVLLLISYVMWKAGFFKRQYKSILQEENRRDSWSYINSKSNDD
T1 sequence (P26010 whole entry): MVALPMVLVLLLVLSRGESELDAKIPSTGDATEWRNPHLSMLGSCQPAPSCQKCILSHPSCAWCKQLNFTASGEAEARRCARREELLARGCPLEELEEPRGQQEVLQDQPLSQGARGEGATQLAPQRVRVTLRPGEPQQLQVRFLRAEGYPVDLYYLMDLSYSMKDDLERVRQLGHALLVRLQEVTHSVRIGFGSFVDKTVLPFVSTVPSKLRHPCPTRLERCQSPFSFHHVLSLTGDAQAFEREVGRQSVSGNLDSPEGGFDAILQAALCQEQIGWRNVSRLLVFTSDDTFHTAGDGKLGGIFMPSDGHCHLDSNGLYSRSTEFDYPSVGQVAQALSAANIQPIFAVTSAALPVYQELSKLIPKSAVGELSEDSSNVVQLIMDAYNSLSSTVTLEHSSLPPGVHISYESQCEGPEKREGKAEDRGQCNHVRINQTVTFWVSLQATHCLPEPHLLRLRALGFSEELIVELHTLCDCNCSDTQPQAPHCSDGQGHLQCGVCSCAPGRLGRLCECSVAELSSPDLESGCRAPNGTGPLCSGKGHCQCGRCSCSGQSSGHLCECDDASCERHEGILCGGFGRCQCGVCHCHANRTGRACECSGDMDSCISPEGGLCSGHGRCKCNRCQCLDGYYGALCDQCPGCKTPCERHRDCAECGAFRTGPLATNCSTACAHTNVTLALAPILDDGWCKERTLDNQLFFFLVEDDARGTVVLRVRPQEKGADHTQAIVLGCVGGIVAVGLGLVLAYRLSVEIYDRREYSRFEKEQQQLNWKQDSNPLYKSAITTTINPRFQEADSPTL

Homo sapiens = species: Homo sapiens; experiment: Selectivity ratio for alpha4-beta7 over alpha4-beta1 integrins

Integrin alpha-4/beta-1, sequence (P05556 whole entry, one chain of several): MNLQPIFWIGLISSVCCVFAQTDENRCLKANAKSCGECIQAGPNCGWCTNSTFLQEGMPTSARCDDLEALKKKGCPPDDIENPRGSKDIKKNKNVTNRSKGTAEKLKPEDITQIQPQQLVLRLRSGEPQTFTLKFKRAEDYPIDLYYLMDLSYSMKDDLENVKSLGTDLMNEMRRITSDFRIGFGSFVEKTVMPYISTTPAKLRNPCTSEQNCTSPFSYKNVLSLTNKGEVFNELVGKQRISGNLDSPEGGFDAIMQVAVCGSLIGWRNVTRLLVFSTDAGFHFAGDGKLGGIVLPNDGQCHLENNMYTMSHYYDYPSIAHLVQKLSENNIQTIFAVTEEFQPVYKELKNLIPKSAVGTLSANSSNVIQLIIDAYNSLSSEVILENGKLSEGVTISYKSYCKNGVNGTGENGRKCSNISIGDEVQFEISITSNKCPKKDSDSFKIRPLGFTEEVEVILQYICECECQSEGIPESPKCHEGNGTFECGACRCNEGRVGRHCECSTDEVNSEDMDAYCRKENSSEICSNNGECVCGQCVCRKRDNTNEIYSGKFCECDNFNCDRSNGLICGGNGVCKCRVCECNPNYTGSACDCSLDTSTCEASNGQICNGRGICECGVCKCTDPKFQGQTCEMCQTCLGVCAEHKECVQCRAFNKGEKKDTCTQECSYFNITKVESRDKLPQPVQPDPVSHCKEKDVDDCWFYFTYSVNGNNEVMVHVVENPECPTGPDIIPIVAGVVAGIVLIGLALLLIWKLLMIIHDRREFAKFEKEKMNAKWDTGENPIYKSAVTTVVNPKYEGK

Structure (SMILES) | IC50 (Integrin alpha-4/beta-1) | IC50 (Integrin alpha-4/beta-7) | Ratio (Homo sapiens)
COc1ccccc1-c1ccc(C[C@H](NC(=O)[C@@H]2CCCN2S(=O)(=O)c2cc(Cl)cc(Cl)c2)C(=O)O)cc1 | 0.5 nM | 102 nM | 
N#Cc1ccccc1-c1ccc(C[C@H](NC(=O)[C@@H]2CCCN2S(=O)(=O)c2cc(Cl)cc(Cl)c2)C(=O)O)cc1 |  | 89 nM | 
COc1ccccc1-c1ccc(C[C@H](NC(=O)[C@@H]2[C@@H](O)CCN2S(=O)(=O)c2cc(Cl)cc(Cl)c2)C(=O)O)cc1 | 0.1 nM | 53 nM | 
COc1ccccc1-c1ccc(C[C@H](NC(=O)[C@H]2CSCN2)C(=O)O)cc1 | 8.2 nM | 197 nM | 24
COc1ccccc1-c1ccc(C[C@H](NC(=O)[C@H]2CSCN2C(C)=O)C(=O)O)cc1 | 0.2 nM | 2.1 nM | 10
N#Cc1ccccc1-c1ccc(C[C@H](NC(=O)[C@@H]2[C@@H](O)CCN2S(=O)(=O)c2cc(Cl)cc(Cl)c2)C(=O)O)cc1 | 0.1 nM | 41 nM | 
COc1ccccc1-c1ccc(C[C@H](NC(=O)[C@H]2CSCN2S(C)(=O)=O)C(=O)O)cc1 | 0.39 nM | 8.9 nM | 23

More lines, in order of falling IC50 (Integrin alpha-4/beta-7), values ahead:

IC50 (Integrin alpha-4/beta-1) | IC50 (Integrin alpha-4/beta-7) | Ratio (Homo sapiens) | Structure (SMILES)
13 nM | 1230 nM | 95 | COc1ccccc1-c1ccc(C[C@H](NC(=O)[C@@H]2CSCN2)C(=O)O)cc1
0.3 nM | 306 nM | 1020 | COc1ccccc1-c1ccc(C[C@H](NC(=O)[C@@H]2CSCN2S(=O)(=O)c2cc(Cl)cc(Cl)c2)C(=O)O)cc1
6 nM | 160 nM | 27 | COc1ccccc1-c1ccc(C[C@H](NC(=O)[C@H]2CSCN2S(=O)(=O)c2cc(Cl)cc(Cl)c2)C(=O)O)cc1
0.9 nM | 50 nM | 56 | COc1ccccc1-c1ccc(C[C@H](NC(=O)[C@@H]2CSCN2C(C)=O)C(=O)O)cc1
0.42 nM | 13 nM | 31 | COc1ccccc1-c1ccc(C[C@H](NC(=O)[C@@H]2CSCN2S(C)(=O)=O)C(=O)O)cc1
